# Test system: HEK293T cells carrying the ATF4 luciferase reporter
# Experiment: ATF4-Luc assay (in vitro model of VWMD)
# Type: cell-based, human
# Conditions: Homo sapiens, HEK-293T, 1 μg/mL tunicamycin, 7 hours, One Glo luminescence
# Outline: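 Tunicamycin (1 μg/mL) stress with co-added compound for 7 hours in HEK293T cells stably carrying an ATF4 5′-UTR–luciferase reporter. EC50 values come from the luminescent signal (One Glo).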
row,Compound,EC50 [nM]
1,"O=C1C[C@H](C(=O)N[C@H]2CC[C@H](N3CCN(C4CC(OC(F)(F)F)C4)C3=O)CC2)Oc2ccc(Cl)cc21 (stereo partly drawn) [Compound 188, (2R)-6-chloro-4-oxo-N-[(1r,4R)-4-{2-oxo-3-[3-(trifluoromethoxy)cyclobutyl]imidazolidin-1-yl}cyclohexyl]-3,4-dihydro-2H-1-benzopyran-2-carboxamide]",> 2000
2,"O=C(CO[C@H]1C[C@@H](OC(F)(F)F)C1)NC12CCC(NC(=O)[C@H]3CC(=O)c4cc(F)c(F)cc4O3)(CC1)CC2 [Compound 189, (2R)-6,7-difluoro-4-oxo-N-[4-(2-{[cis-3-(trifluoromethoxy)cyclobutyl]oxy}acetamido)bicyclo[2.2.2]octan-1-yl]-3,4-dihydro-2H-1-benzopyran-2-carboxamide]",10 to 50
3,"O=C(NC12CCC(c3nnc([C@H]4C[C@@H](OC(F)(F)F)C4)o3)(CC1)OC2)[C@@H]1C[C@H](O)c2cc(Cl)ccc2O1 [Compound 190, (2S,4S)-6-chloro-4-hydroxy-N-(1-{5-[cis-3-(trifluoromethoxy)cyclobutyl]-1,3,4-oxadiazol-2-yl}-2-oxabicyclo[2.2.2]octan-4-yl)-3,4-dihydro-2H-1-benzopyran-2-carboxamide]",50 to 250
4,"O=C(NC12CCC(c3nnc([C@H]4C[C@@H](OC(F)(F)F)C4)o3)(CC1)OC2)[C@H]1C[C@@H](O)c2cc(Cl)ccc2O1 [Compound 191, (2R,4R)-6-chloro-4-hydroxy-N-(1-{5-[cis-3-(trifluoromethoxy)cyclobutyl]-1,3,4-oxadiazol-2-yl}-2-oxabicyclo[2.2.2]octan-4-yl)-3,4-dihydro-2H-1-benzopyran-2-carboxamide]",< 10
5,"O=C(CO[C@H]1C[C@@H](OC(F)(F)F)C1)NC12CCC(NC(=O)[C@H]3CC(=O)c4cc(Cl)ccc4O3)(CC1)CC2 [Compound 192, (2R)-6-chloro-4-oxo-N-[4-(2-{[cis-3-(trifluoromethoxy)cyclobutyl]oxy}acetamido)bicyclo[2.2.2]octan-1-yl]-3,4-dihydro-2H-1-benzopyran-2-carboxamide]",10 to 50
6,"O=C(NC12CCC(C(=O)NCc3ccc(C(F)(F)F)cn3)(CC1)CC2)[C@@H]1C[C@@H](O)c2cc(Cl)ccc2O1 [Compound 193, (2S,4R)-6-chloro-4-hydroxy-N-[4-({[5-(trifluoromethyl)pyridin-2-yl]methyl}carbamoyl)bicyclo[2.2.2]octan-1-yl]-3,4-dihydro-2H-1-benzopyran-2-carboxamide]",50 to 250
7,"O=C(CO[C@H]1C[C@@H](OC(F)(F)F)C1)NC12CCC(NC(=O)[C@H]3C[C@@H](O)c4cc(F)c(F)cc4O3)(CC1)CC2 [Compound 194, (2R,4R)-6,7-difluoro-4-hydroxy-N-[4-(2-{[cis-3-(trifluoromethoxy)cyclobutyl]oxy}acetamido)bicyclo[2.2.2]octan-1-yl]-3,4-dihydro-2H-1-benzopyran-2-carboxamide]",< 10
8,"O=C(CO[C@H]1C[C@@H](OC(F)(F)F)C1)NC12CCC(NC(=O)[C@H]3C[C@@H](O)c4cc(Cl)ccc4O3)(CC1)CC2 [Compound 195, (2R,4R)-6-chloro-4-hydroxy-N-[4-(2-{[cis-3-(trifluoromethoxy)cyclobutyl]oxy}acetamido)bicyclo[2.2.2]octan-1-yl]-3,4-dihydro-2H-1-benzopyran-2-carboxamide]",< 10
9,"O=C(CO[C@H]1C[C@@H](OC(F)(F)F)C1)NC12CCC(NC(=O)[C@H]3C[C@@H](O)c4cc(Cl)ccc4O3)(C1)C2 [Compound 196, (2R,4R)-6-chloro-4-hydroxy-N-[4-(2-{[cis-3-(trifluoromethoxy)cyclobutyl]oxy}acetamido)bicyclo[2.1.1]hexan-1-yl]-3,4-dihydro-2H-1-benzopyran-2-carboxamide]",10 to 50
10,O=C(N[C@H]1CC[C@H](N2CCN(C3CC(OC(F)(F)F)C3)C2=O)CC1)[C@H]1C[C@@H](O)c2cc(Cl)ccc2O1 (stereo partly shown) [Compound 197],> 2000

# — patent US20200347043A1, “MODULATORS OF THE INTEGRATED STRESS PATHWAY” (Calico Life Sciences LLC, priority 2019, published 2020)
